This experiment has as its target T1, bovine β-cardiac myosin S1 fragment (cardiac myosin, MYH7) (Bos taurus, UniProt Q9BE39).
T1 construct: Subfragment-1 (S1), AA 1–840; with MYL3 (Uniprot P85100)
The experiment can be described thus: ITC; crystal structure at […] Å; SAXS. It counts as binding. Particulars: read-out: Nucleotide state / ADP-VO4 (n = 5).

T1 sequence (Q9BE39 1-840): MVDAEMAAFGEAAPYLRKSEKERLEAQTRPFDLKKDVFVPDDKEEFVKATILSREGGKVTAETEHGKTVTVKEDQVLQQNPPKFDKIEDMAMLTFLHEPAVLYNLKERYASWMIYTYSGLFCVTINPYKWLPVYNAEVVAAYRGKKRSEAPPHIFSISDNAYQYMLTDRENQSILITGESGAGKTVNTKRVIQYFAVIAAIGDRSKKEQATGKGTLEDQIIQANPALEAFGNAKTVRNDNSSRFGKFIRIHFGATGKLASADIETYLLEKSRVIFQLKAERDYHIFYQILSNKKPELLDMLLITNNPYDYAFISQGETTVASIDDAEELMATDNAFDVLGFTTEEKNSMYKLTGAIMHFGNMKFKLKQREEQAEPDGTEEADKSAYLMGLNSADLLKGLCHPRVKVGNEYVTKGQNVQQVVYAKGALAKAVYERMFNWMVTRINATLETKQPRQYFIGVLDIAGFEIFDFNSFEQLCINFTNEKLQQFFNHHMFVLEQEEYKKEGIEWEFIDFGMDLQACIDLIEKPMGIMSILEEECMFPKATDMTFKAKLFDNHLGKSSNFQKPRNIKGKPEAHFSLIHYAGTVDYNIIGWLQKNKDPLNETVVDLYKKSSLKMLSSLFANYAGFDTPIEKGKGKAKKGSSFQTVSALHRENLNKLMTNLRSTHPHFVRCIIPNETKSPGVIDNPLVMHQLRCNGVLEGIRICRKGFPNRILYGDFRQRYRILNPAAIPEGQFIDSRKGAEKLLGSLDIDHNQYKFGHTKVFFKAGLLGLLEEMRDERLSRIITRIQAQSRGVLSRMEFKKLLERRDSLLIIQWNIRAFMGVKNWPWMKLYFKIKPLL
T1 sequence (P85100 2-199 partner): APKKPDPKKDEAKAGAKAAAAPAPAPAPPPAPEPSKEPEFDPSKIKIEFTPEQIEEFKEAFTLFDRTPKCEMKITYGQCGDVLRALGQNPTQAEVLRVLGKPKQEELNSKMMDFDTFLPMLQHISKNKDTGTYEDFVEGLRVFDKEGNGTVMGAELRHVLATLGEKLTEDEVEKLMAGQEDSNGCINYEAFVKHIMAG

With `COC(=O)N1CCN(Cc2cccc(NC(=O)Nc3ccc(C)nc3)c2F)CC1` [OM, Omecamtiv mecarbil], the Kd worked out at 290 ± 40 nM.

For the origin of these results see PMC5543065, “Mechanistic and structural basis for activation of cardiac myosin force production by omecamtiv mecarbil” (Nature Communications, 2017).
